Experimental data: patent US5229398A, “Aminomethylpiperidine compounds” (Adir et Compagnie, priority 1990, dated 1993)
Counter-ions that a name gives are not always drawn. Like-named read-outs stand apart in the source and are kept apart here.

Assays:
[1] = biological target: T1, 5-HT1A receptors (Rattus norvegicus, UniProt P19327); set-up: The tests were carried out on tissue from the hippocampus of decapitated male Wistar rats; from tissue; host or cells: hippocampus membranes of male Wistar rats; details: reference ligand 8-OH-DPAT; cited from earlier work
T1 sequence (P19327 1-422): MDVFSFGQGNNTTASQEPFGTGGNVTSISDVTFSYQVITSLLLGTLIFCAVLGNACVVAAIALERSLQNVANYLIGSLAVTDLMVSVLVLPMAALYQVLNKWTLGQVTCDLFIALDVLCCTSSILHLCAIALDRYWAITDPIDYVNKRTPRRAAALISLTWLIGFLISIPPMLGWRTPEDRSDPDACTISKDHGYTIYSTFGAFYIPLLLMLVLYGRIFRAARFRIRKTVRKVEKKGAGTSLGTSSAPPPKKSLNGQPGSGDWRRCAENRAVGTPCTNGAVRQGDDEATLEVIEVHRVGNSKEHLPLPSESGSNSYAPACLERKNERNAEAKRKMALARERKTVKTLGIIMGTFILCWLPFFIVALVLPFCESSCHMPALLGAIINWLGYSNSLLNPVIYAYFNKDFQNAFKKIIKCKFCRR

[2] = biological target: T1, 5-HT1A receptors; set-up: from tissue; host or cells: whole rat in vivo; details: subcutaneous injection; cited from earlier work
[3] = biological target: T1, 5-HT1A receptors; test: In vivo test of "tail-flicks" (antagonism of 8-OH-DPAT-induced spontaneous tail movements); set-up: from tissue; host or cells: whole rat in vivo; details: subcutaneous injection; for ED50: sc, against subcutaneous 8-OH-DPAT, read-out: ED50, the amount which reduces the action of 8-OH-DPAT by 50%
From the text: The potential of the compounds of the invention to act in vivo on the 5-HT1A receptors was brought out following a method perfected by Millan et al. (Neurosci. Lett., 1989, 107, 227-232). […] This model then was used to evaluate the potential of the compounds of the invention administered by subcutaneous injection, to interact with the 5-HT1A receptors in the rat. The ED50, that is the amount which reduces the action of 8-OH-DPAT by 50%, was thus determined.

[4] = biological target: T1, 5-HT1A receptors; test: Affinity for 5-HT1A receptors in vitro ([3H]-8-OH-DPAT binding, rat hippocampus membranes); set-up: from tissue; host or cells: hippocampus membranes of male Wistar rats; species or system male Wistar rats
Protocol: The tests were carried out on tissue from the hippocampus of decapitated male Wistar rats. The rats were sacrificed 48 hours before the experiment and the isolated tissues were preserved at -86° C.
In order to prepare the membranes, the tissues were homogenized at 0° C. in 20 volumes of 50 mM Tris HCl buffer solution (pH 7.7, adjusted with 5N HCl at 25° C.), with a Polytron homogenizer for 6 seconds. The whole was then centrifuged (35,000 g for 20 minutes at 4° C.). Homogenization followed by centrifugation was repeated a second time under the same conditions. The pellet thus obtained was suspended for a final time in 20 volumes of the above buffer, incubated for 15 minutes at 37° C., then again centrifuged. […]
The compounds to be tested were put into solution in the incubation buffer. Test solutions were prepared by placing in 12×75 mm glass tubes, 10 μl of the solution of the compounds to be tested, 100 μl of a solution containing […] of [^3 H]-8-OH-DPAT (specific radioactivity 205 Ci/mmol). Non-specific binding was determined with the aid of a solution of 5-hydroxytryptamine (10 μM), and represented 5 to 10% of the final binding. […] Radioactivity was then determined with the aid of external standards.
The pKi values were determined by the CheungPrusoff equation: [formula]

SMILES	affinity for the 5-HT1A sites of the reference (in words) [1]	selectivity for the 5-HT1A sites of the reference (in words) [1]	induction of spontaneous movements of the tail (in words) [2]	ED50 [3] [mg/kg]	properties towards the 5-HT1A receptors (in words) [3]	Ki [4] [nM]	Ki ([4]; rat hippocampus, [3H]-8-OH-DPAT, 30 minutes at 37° C., pKi by CheungPrusoff equation, read-out: pKi (converted)) [nM]
CCCN(CCC)C1CCc2cccc(O)c2C1 (stereo not drawn) [Example 8-OH-DPAT, 8-hydroxy-2-(dipropylamino)tetraline]	very great affinity	great selectivity	marked spontaneous movements of the tail	–	–	–	–
COc1cccc2c1OC(CNCC1CCN(c3nc4ccccc4s3)CC1)CO2 (stereo not drawn) [Example 16, 1-(BENZOTHIAZOL-2-YL)-4-[(8-METHOXY-1,4-BENZODIOXAN-2-YL)-METHYLAMINOMETHYL]PIPERIDINE DIHYDROCHLORIDE]	–	–	–	0.31	antagonist properties	0.501	–
COc1ccccc1OCCNCC1CCN(c2nc3ccccc3o2)CC1.Cl.Cl [Example 44, 1-(BENZOXAZOL-2-YL)-4-[[2-(2-METHOXYPHENOXY)ETHYL]AMINOMETHYL]PIPERIDINE DIHYDROCHLORIDE]	–	–	–	0.31	antagonist properties	–	1
